Measured values from patent US6545039B1 (Viatris GmbH & Co. KG, priority 1999, dated 2003).

Assay: Tolerability of intravenous infusion rates in healthy subjects
Assay type: in vivo, human
Details: i.v., all infusion rates used (100, 200, 600 mg/min)
From the text: The following results were obtained here. 1.

With `O=C(O)CCCCC1CCSS1` (stereo not drawn) [α-lipoic acid] the “tolerability of infusion rate” value was “excellently tolerated”.
